Reference: patent publication US20080044484A1, “Use of polymeric nanoparticles for vaccine delivery” (THE REGENTS OF THE UNIVERSITY OF CALIFORNIA, priority 2004, published 2008)

Experiments:
[1] = tested on: peptide-loaded MDA-MB-231 cells; assay: Mechanisms of peptide loading: acid stripping, pronase, Brefeldin A, 51Cr-release; assay type: cell-based, human
From the text: To distinguish between loading of the peptides into the cytosol and simple binding of these peptides to the surface MHC molecules several approaches were used. First, β2-microglobulin was removed from the surface of peptide-loaded tumor cells by acid stripping. […] Second, pronase was used for complete enzymatic digestion of HLA molecules on the cell surface after loading in order to be able to detect the appearance of new internally formed HLA-peptide complexes on the cell surface, but not pulsing of the cells. Third, Brefeldin A (BFA), a metabolite of the fungus Eupenicillium brefeldianum, was used which specifically blocks protein transport from the ER to Golgi apparatus.
These experiments confirmed that the antigenic peptides were introduced into the cytosol of the cells, resulting in a prolonged and more efficient antigen presentation.

[2] = molecular target: HLA-A2.1 (human); assay: cell-based or functional assay
[3] = tested on: breast cancer cells MDA-MB-231; assay: IFNγ release by CTL (ELISA) after incubation with peptide-loaded MDA-MB-231 cells; assay type: cell-based, human; settings: CTL elicited with the corresponding HER2/neu peptide, 20 h, 10^5 CTL/well
Experimental: In interferon gamma release assays, 10^5 HER2/neu-specific CTL were co-incubated with 10^5 peptide-loaded tumor cells for 20 hours at 37° C. The concentration of human interferon gamma in co-cultured supernatants was then determined by ELISA.

[4] = tested on: T2 cells; assay: 51Cr-release assay, T2 cells loaded or pulsed with signal sequence constructs, at periods after loading; assay type: cell-based, human; settings: loading into the cytosol; days 1-8 after loading
From the text: By “loading” of the fusion peptides into the cytosol of T2 cells, cancer cells and dendritic cells is meant use of a technology called “osmotic lysis of pinocytic vesicles.” T2 cells were exposed to hypertonic medium containing the peptide constructs. Pinocytic vesicles form in this medium, and because of their increased internal osmotic pressure, they break in the cytosol when the cells are placed in hypotonic culture medium.
The induction of CTL in human PBMC was monitored in a conventional ^51Cr-labeling release assay. Briefly, peptide-pulsed TAP^−/HLA-A2.1^+ human T2 cells were incubated with 10 μg of HER2/neu peptides or the MART-1 control peptide for 90 min during labeling with ^51Cr. After washing, the target cells were added to serially diluted effectors in 96-well microplates. After a 6-h incubation at 37° C., supernatants were harvested and counted in a gamma counter. Results are expressed as the percentage of specific lysis and determined as follows: [(experimental cpm−spontaneous cpm)/(maximum cpm−spontaneous cpm)]×100.
Peptide-loaded or pulsed T2 cells were tested for their ability to present HER2/neu peptides at different periods of time after loading or pulsing.

[5] = tested on: T2 cells; assay: IFNγ release by CTL (ELISA) after incubation with peptide-loaded T2 cells; assay type: cell-based, human; settings: CTL elicited with the corresponding HER2/neu peptide, 20 h, 10^5 CTL/well
Experimental: In interferon gamma-release assays, 10^5 HER2/neu-specific CTL were co-incubated with 10^5 peptide-loaded T2 cells for 20 hours at 37° C. The concentrations of human interferon gamma in co-cultured supernatants were then determined by ELISA.

[6] = tested on: ICP47-transfected cells MCF7; assay: Functional blockade of TAP by ICP47, 51Cr-release from peptide-loaded cells; assay type: cell-based, human; settings: for Percent 51Cr Released From ICP47-transfected MCF7 cells loaded with the construct: CTL reactive against the corresponding HER2/neu peptide, 3 days after peptide loading, 6-hour assay
From the text: Another aspect in these studies was to determine the mechanisms of enhancement of the antigen presentation by the fusion peptides in human tumor cell lines. Therefore, a new test system was developed utilizing the Herpes Simplex virus (HSV) protein ICP47. ICP47 is a cytoplasmic protein, which interferes with antigen presentation by physically associating with TAP within the cell and inhibiting peptide transport across the ER-membrane. By transfecting the ICP47 gene into several cancer cell lines a novel system for screening different fusion peptides for TAP-independent translocation of peptide antigens through the ER-membrane was generated.
The expression of these antigens was detected by ^51Cr-release assays.

[7] = tested on: breast cancer cells MDA-MB-231; assay: 51Cr-release assay, MDA-MB-231 cells loaded or pulsed with signal sequence constructs; assay type: cell-based, human; settings: loading; days 1-8 after loading
Experimental: ^51Cr-release assays were used to test to see if the low HER2/neu-expressing breast cancer cells MDA-MB-231 can be recognized more efficiently by the HER2/neu-specific CTL after loading with the fusion peptides.
The lysis of the tumor cells by the HER2/neu-specific CTL was monitored in a conventional ^51Cr-labeling release assay. Briefly, peptide-loaded tumor cells were added to serially diluted effectors in 96-well microplates. After a 6-h incubation at 37° C., supernatants were harvested and counted in a gamma counter. Results are expressed as the percentage of specific lysis and determined as follows: [(experimental cpm−spontaneous cpm)/(maximum cpm−spontaneous cpm)]×100.
Peptide-loaded breast cancer cells MDA-MB-231 were tested for their ability to present HER2/neu peptides at different periods of time after loading or pulsing.

[8] = molecular target: TAP (human) (UniProt Q03518); assay: cell-based or functional assay
TAP (human), sequence (Q03518 whole entry, chain 1 of 2): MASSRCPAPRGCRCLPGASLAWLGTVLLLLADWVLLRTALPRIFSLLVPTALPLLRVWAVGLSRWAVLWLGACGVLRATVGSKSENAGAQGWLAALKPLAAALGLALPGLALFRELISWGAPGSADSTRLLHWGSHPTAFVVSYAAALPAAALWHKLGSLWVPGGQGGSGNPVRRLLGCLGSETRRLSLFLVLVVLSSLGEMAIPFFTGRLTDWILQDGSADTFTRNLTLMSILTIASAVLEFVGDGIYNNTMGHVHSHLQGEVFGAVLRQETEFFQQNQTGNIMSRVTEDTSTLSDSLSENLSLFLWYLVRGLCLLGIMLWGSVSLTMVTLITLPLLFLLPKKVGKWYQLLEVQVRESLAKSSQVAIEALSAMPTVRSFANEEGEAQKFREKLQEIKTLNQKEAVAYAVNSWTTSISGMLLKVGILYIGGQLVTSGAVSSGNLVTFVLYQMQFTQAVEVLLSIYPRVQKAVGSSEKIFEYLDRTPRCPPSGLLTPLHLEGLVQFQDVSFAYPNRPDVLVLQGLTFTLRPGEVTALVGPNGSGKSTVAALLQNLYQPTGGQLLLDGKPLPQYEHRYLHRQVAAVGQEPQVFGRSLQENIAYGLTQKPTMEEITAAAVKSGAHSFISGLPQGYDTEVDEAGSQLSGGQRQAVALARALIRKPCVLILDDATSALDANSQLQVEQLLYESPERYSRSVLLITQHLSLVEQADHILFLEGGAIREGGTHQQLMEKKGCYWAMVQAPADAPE
TAP (human), sequence (Q03519 whole entry, chain 2 of 2, further chain): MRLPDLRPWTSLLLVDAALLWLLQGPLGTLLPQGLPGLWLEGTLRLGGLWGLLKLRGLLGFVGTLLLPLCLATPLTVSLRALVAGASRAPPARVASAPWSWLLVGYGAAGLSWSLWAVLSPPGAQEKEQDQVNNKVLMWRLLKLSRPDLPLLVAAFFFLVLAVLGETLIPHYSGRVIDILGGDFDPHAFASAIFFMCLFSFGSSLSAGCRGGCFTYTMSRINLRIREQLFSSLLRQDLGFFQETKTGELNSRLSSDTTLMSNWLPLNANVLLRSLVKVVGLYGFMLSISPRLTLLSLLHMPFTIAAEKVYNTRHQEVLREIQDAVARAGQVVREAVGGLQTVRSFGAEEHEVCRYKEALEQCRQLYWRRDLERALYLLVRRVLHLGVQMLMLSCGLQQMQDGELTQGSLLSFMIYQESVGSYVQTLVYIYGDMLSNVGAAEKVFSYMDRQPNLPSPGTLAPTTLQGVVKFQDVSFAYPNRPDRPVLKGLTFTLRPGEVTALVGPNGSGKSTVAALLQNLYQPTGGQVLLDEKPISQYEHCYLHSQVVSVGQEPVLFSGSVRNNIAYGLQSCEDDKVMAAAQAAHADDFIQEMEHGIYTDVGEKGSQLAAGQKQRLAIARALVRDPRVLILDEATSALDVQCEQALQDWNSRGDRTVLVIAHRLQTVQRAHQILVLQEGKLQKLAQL

In the case of C[C@H]1CCC/C=C/[C@@H]2C[C@H](O)C[C@H]2[C@H](O)/C=C/C(=O)O1 [Brefeldin A], the “Blocking of recognition of peptide-loaded tumor cells by HER2/neu-specific CTL” value [1] is reported as “specifically blocks the recognition”.

With anti-HLA-A2 antibody BB7.2 the Percent LDH released from peptide-pulsed K562-A2 +BB7.2 (CTL specific for STEAP130-138 -1F/3W/9V; 74 without antibody) (percent LDH released) [2] was 1, the Percent LDH released from peptide-pulsed K562-A2 +BB7.2 (CTL specific for STEAP130-138 -1F; 75 without antibody) (percent LDH released) [2] was 2 and the Percent LDH released from peptide-pulsed K562-A2 +BB7.2 (CTL specific for STEAP130-138 -3W; 63 without antibody) (percent LDH released) [2] was 5. For the same compound, the Percent LDH released from peptide-pulsed K562-A2 +BB7.2 (CTL specific for STEAP130-138 -9V; 53 without antibody) (percent LDH released) [2] was 1, the Percent LDH released from peptide-pulsed K562-A2 +BB7.2 (CTL specific for STEAP130-138; 63 without antibody) (percent LDH released) [2] was 2 and the Percent LDH released from peptide-pulsed K562-A2 +BB7.2 (CTL specific for STEAP192-200; 56 without antibody) (percent LDH released) [2] was 7.

For “M A IISAVVGIL A A A A A G (MAIISAVVGILAAAAAG) [HER654-662-IN-AF]”, the “Release of IFNγ by CTL, MDA-MB-231 cells loaded with the peptide” value ([3]; Day 1 after peptide loading) was 3321 pg/mL, the “Release of IFNγ by CTL, MDA-MB-231 cells loaded with the peptide” value ([3]; Day 3 after peptide loading) was 2994 pg/mL and the “Release of IFNγ by CTL, MDA-MB-231 cells loaded with the peptide” value ([3]; Day 5 after peptide loading) was 1933 pg/mL. For the same compound, the “Release of IFNγ by CTL, MDA-MB-231 cells loaded with the peptide” value ([3]; Day 8 after peptide loading) was 899 pg/mL, the “Recognition by CTL of T2 cells loaded with the peptide (51Cr-release)” value [4] was “effective” and the “Release of IFNγ by CTL, T2 cells loaded with the peptide” value (from here on “Release of IFNγ by CTL, T2 cells loaded”) ([5]; Day 1 after peptide loading) was 3321 pg/mL. The “Release of IFNγ by CTL, T2 cells loaded” value ([5]; Day 3 after peptide loading) was 2981 pg/mL, the “Release of IFNγ by CTL, T2 cells loaded” value ([5]; Day 5 after peptide loading) was 1892 pg/mL and the “Release of IFNγ by CTL, T2 cells loaded” value ([5]; Day 8 after peptide loading) was 881 pg/mL. For the same compound, the “Restoration of antigen presentation in ICP47-transfected breast cancer cells” value ([6]; 51Cr-release) was “able to restore the antigen presentation”, the “Percent 51Cr Released From ICP47-transfected MCF7 cells loaded with the construct” value ([6]; E:T 20:1) was 22% and the “Percent 51Cr Released From ICP47-transfected MCF7 cells loaded with the construct” value ([6]; E:T 40:1) was 66%. For the same compound, the “Recognition by CTL of MDA-MB-231 cells loaded with the peptide (51Cr-release)” value [7] was “effective”.

Compound “Herpes Simplex virus (HSV) protein ICP47 (from UniProt P03170 1-88)” has a Percent 51Cr released from MCF7-ICP47 (CTL369-377, E:T 20:1; 29 for untransfected MCF7) (percent 51Cr released) [8] of 3, a Percent 51Cr released from MCF7-ICP47 (CTL369-377, E:T 40:1; 62 for untransfected MCF7) (percent 51Cr released) [8] of 3 and a Percent 51Cr released from MCF7-ICP47 (CTL654-662, E:T 20:1; 31 for untransfected MCF7) (percent 51Cr released) [8] of 2. For the same compound, the Percent 51Cr released from MCF7-ICP47 (CTL654-662, E:T 40:1; 74 for untransfected MCF7) (percent 51Cr released) [8] was 4.

In the case of “MA HLYQGCQVV AAAAAG (MAHLYQGCQVVAAAAAG) [HER48-56-IN-AF]”, the “Recognition by CTL of T2 cells loaded with the peptide (51Cr-release)” value [4] is reported as “effective”, the “Release of IFNγ by CTL, T2 cells loaded” value ([5]; Day 1 after peptide loading) is reported as 3488 pg/mL and the “Release of IFNγ by CTL, T2 cells loaded” value ([5]; Day 3 after peptide loading) is reported as 1229 pg/mL. For the same compound, the “Release of IFNγ by CTL, T2 cells loaded” value ([5]; Day 5 after peptide loading) was 1010 pg/mL and the “Release of IFNγ by CTL, T2 cells loaded” value ([5]; Day 8 after peptide loading) was 718 pg/mL.
